Activity calls are given as the source filed them. How the calls were made is not given here.
Target: Vacuolar aminopeptidase 1 (Saccharomyces cerevisiae (strain ATCC 204508 / S288c)) (UniProt P14904)
Test: yeast TOR reporter LAP4 modulators, analogs – cell-based, KU SAR set, flow cytometry, SAR follow-up (AID 488795)
Details: S. cerevisiae Lap4-GFP reporter, flow cytometry MCF

Chain of Vacuolar aminopeptidase 1 (Saccharomyces cerevisiae (strain ATCC 204508 / S288c)) (P14904 whole entry, looked up): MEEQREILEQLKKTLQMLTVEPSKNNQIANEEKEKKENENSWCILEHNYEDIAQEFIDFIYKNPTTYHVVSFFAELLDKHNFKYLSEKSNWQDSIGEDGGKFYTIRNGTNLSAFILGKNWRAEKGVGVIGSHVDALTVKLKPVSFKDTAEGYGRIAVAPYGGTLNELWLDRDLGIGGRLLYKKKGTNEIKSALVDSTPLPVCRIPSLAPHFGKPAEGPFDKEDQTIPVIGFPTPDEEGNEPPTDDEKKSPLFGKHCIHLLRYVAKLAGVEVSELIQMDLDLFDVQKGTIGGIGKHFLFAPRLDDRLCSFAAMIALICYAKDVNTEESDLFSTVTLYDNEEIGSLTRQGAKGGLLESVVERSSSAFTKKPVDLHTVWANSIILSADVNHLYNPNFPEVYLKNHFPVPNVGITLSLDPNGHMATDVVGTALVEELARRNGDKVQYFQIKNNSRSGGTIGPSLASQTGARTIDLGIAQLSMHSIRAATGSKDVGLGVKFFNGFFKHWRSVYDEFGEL

SMILES	EC50
CN1CCN(C(=O)c2cc(COc3c(F)cccc3F)on2)CC1c1ccccc1 (centres undefined)	inactive
CCSc1nnc(NC(=O)c2ccccn2)s1	inactive
Cc1ccc(S(=O)(=O)c2ncccc2[N+](=O)[O-])cc1	inactive
CCOC(=O)CS(=O)(=O)c1nc(-c2ccccc2)cc(C(F)(F)F)n1	6.32 µM
C/C(=N\NC(=O)c1ccc(C(C)(C)C)cc1)c1ccccn1	inactive
CC(C)(C)C(=O)C(Cl)C(=O)Nc1ccccc1 (centres undefined)	6.93 µM
CCC(C)Nc1nc(N)c([N+](=O)[O-])c(Nc2cccc(F)c2)n1 (centres undefined)	inactive
O=c1/c(=C/c2cccc3ccccc23)sc2ncnn12	4.36 µM
CNc1nc(N)c([N+](=O)[O-])c(Nc2cccc(F)c2)n1	8.37 µM
O=C(Nc1nc(-c2ccccn2)cs1)C1COc2ccccc2O1 (centres undefined)	inactive
O=[N+]([O-])c1cc(S(=O)(=O)C(F)(F)F)ccc1Sc1nc2ccccc2s1	14 µM
Nc1cc(Nc2cccc(F)c2)nc(NCc2ccccc2)n1	inactive
Cc1ccc(S(=O)(=O)c2ccc([N+](=O)[O-])cn2)cc1	2.55 µM
C/C(=N\NC(=O)c1cccc(Br)c1)c1ccccn1	inactive
CCCOc1ccc(C(=O)NNC(=S)NC(=O)CC)cc1	4.38 µM
CCOC(=O)CSC1=NC(=O)/C(=C\c2ccc(Cl)cc2)S1	inactive

More lines, now with the values ahead:

EC50	SMILES
12.5 µM	O=S(=O)(CCN(CCS(=O)(=O)C(F)(F)F)CC1CCCO1)C(F)(F)F (centres undefined)
1.94 µM	O=[N+]([O-])c1ccc(S(=O)(=O)c2cccc(C(F)(F)F)c2)nc1
3.42 µM	O=C(CCc1ccccc1)NNC(=S)NC(=O)c1ccccc1
4.33 µM	O=C(OCn1ncc(Br)c(Br)c1=O)c1c(F)cccc1F
inactive	CSC1=NS(=O)(=O)c2c(C)nn(C)c2S1
3.73 µM	Clc1ccc(N=c2ssnc2Cl)cc1
4.47 µM	Cc1ccc2nc(Cl)c3nnnn3c2c1
inactive	CCN(CC)C(=O)Oc1ccnc2cc(Cl)ccc12
19.9 µM	COC(=O)CCS(=O)(=O)c1nc(-c2ccccc2)cc(C(F)(F)F)n1
3.53 µM	COc1ccc([N+](=O)[O-])c(S(=O)(=O)c2ccc(Cl)cc2)n1
inactive	Oc1c(I)cc(I)c2cccnc12
27.6 µM	CCOC(=O)CCS(=O)(=O)c1nc(-c2ccccc2)cc(C(F)(F)F)n1
6.57 µM	O=[N+]([O-])c1ccc(O)c2ncccc12
inactive	Nc1cc(Oc2cccc(Cl)c2)nc(NCc2ccccc2)n1
11.9 µM	COc1ccc([N+](=O)[O-])c(S(=O)(=O)c2ccccc2)n1
4.05 µM	CCCCC(=O)NNC(=S)NC(=O)c1ccc(C)cc1
1.22 µM	O=c1cc(CSc2ccc(Cl)cc2)nc(-c2ccccn2)[nH]1
4.01 µM	O=C(OCn1ncc(Br)c(Br)c1=O)c1ccc(F)cc1
